Measured values from patent US20250250559A1, “METHOD TO ANALYZE AND OPTIMIZE GENE EDITING MODULES AND DELIVERY APPROACHES” (Hoffmann-La Roche Inc., priority 2016, published 2025).
“And” between values parts separate entries of the source, which are not always exact repeats. Identical values can stand only once. “Also recorded” adds a separate entry of the source.

Assays:
Format in all cases: cell-based, human
[1] = system: DPH1 gene; experiment: HRM-PCR on single cells followed by DT sensitivity assay; conditions: FIG. 5B
Experimental: Cells which have only one allele of dph1 or dph2 modified are not toxin resistant. To identify and quantify those events, high resolution melting (HRM) PCR was applied in a similar manner as described by Stahl et al (Stahl, et al. 2015): 24 h after transfection, single cells were deposited in 96-well plates by FACS (FACSAria, BD biosciences) and grown until confluency. Cells were washed with PBS and lysed by addition of 40 μL cell lysis buffer (Roche) per well. After 15 mins incubation at RT on a plate shaker (Titramax 1000, Heidolph) at 750 rpm, the cell lysate was 1:5 diluted with PCR grade H2O. 5 μL cell lysate was mixed with a High resolution melting (HRM) master mix (Roche) and with primer spanning the gRNA target sequence. PCR and HRM were performed in an LC480 II (Roche) according the manufacturer's protocol. Clones with edited target genes were identified by their altered melting curve compared to MCF7-WT cells.
Therefore, such clones were expanded (without toxin or Puromycin selection) and subjected to cell viability analyses to discriminate between heterozygous (toxin sensitive) and homozygous (resistant) knockout cells. […] Metabolic activity of surviving cells was assessed by a CellTiterGlo® Luminescent Viability Assay (Promega) performed according to the manufacturer's specifications.

[2] = system: DPH1 gene; experiment: DT resistant colony count after DPH1 gene editing (homozygous gene inactivation); conditions: for # of DT resistant colonies (mean of the samples) / # of DT resistant colonies: TF eff. = 38%; for # of DT resistant colonies: DPH1 assay (integr. vs. k.o.), individual samples; for # of DT resistant colonies (40,000 seeded cells): DPH1 assay editing entities, MCF-7, individual replicates, TF eff. = 33%
[3] = system: DPH1 gene; experiment: as above; conditions: for # of DT resistant colonies (20,000 seeded cells) / # of DT resistant colonies (20,000 seeded cells) (unheaded second sub-column: mean): DPH1 (gRNA length), TF eff. = 31%; for # of DT resistant colonies (20,000 seeded cells): MCF7, individual samples A-D; for # of DT resistant colonies (mean of the samples): DPH1 assay (integr. vs. k.o.), 20,000 seeded cells; for # of DT resistant colonies (mean of the samples) / # of DT resistant colonies: TF eff. = 38%; for # of DT resistant colonies: DPH1 assay (integr. vs. k.o.), MCF7, 20,000 seeded cells, individual samples; for generation of DTr colonies: MCF7
Experimental: (§1) MCF7 cells (Brooks, et al. 1973) were originally obtained from ATCC (subsequently propagated in an in-house cell bank) and maintained in RPMI […] medium supplemented with 10% FCS, 2 mM L-Glutamine and penicillin/streptomycin at 37° C. and 85% humidity. For transfection of plasmids harboring gene-editing modules, 3,000,000 cells were seeded in a 10 cm diameter culture dish and cultivated at 37° C. and humidified 5% CO2. 24 h after seeding, cells were transfected with 20 μg total DNA using JetPEI (Polyplus) according to the manufacturer's protocol but with an N/P ratio of 6:1. Transfection efficiency was determined after 24 h by flow cytometry (FACS Calibur, BD biosciences) of cells that were transfected with a modified eGFP expression plasmid (Zhang, et al. 1996).
(§2) Plasmids encoding CRISPR/Cas9 gene-editing entities (i.e. knock-out and integration systems) against Dph1 (gRNA target sequence: […] (SEQ ID NO: 01) derived from RefSeq: NM_001383) and Dph2 (gRNA target sequence: […] (SEQ ID NO: 02) derived from RefSeq: NM_001039589, NM_001384), and scrambled control (gRNA sequence: […] (SEQ ID NO: 03)) were obtained from OriGene. This system comprises one plasmid expressing a ˜100 nt gRNA under control of a U6 promoter as well as Cas9 nuclease under control of a CMV promoter and a Donor plasmid with a promoter-less GFP/PM expression cassette flanked by homologous arms to the target gene (Dph1 or Dph2). Additional Dph1 gRNA sequence variants of different sizes (OriGene) […]
(§3) MCF7 cells which have all chromosomal copies of DPH1 or DPH2 inactivated are resistant to diphtheria toxin (Stahl, et al. 2015). Thus, occurrence and frequency of toxin resistant cells/colonies upon CRISPR/Cas inflicted gene inactivation provides a measure for efficiency of inactivation of all gene copies. Therefore, MCF/cells were transfected as described in Example 1 with (i) a GFP expression plasmid as transfection control, (ii) the CRISPR/Cas9 Dph1 or Dph2 knock-out/integration system and (iii) knock-out/integration entities containing a scrambled gRNA to determine Cas9 independent integration frequencies. After determination of transfection efficiency, cells were seeded in 6-well plates. For quantification of homozygous knock-out events by DT 20000 cells were seeded and for quantification of integration events by PM or both events 40000 cells were seeded. RPMI medium was exchanged by RPMI medium containing DT or PM or both toxins 3 days after cell seeding. Exchange of medium was repeated every 2-3 days until all dead cells were removed from the plates and actively growing colonies could be detected via microscopic inspection. Thereafter (between day 12 and day 14 after start of toxin exposure), cells were washed 3 times with PBS and subsequently stained with ice cold methylene blue (0.2% in 50% EtOH). Methylene blue solution was subsequently removed and the plates were carefully washed under running water. Finally, cell colonies were counted under the microscope with a 5 mm grid foil.
MCF7 cells which have all chromosomal copies of DPH1 inactivated are DT resistant. Thus, occurrence and frequency of DTr colonies upon ZFN inflicted gene inactivation and/or cassette integration provides a measure for efficacy of inactivation of all gene copies. The ZFN recognition sequence ([…], cleavage site, SEQ ID NO: 10) are derived from NM_001383.3 (DPH1-wt) and were obtained from Sigma Aldrich. A PAC integration cassette for this position was obtained from OriGene. MCF7 cells were transfected as described above with (i) a GFP expression plasmid, (ii) the plasmid encoding DPH1-targeting ZFN and (iii) the DPH1-targeting PAC-integration cassette. After determination of transfection efficiency, cells were seeded in 6-well plates. For quantification of homozygous knock-out events (DTr) 20,000 cells were seeded, 40,000 cells for quantification of integration events (PMr) or double resistances. […]

[4] = system: DPH2 gene; experiment: DT resistant colony count after DPH2 gene editing; conditions: DPH2 assay (integr. vs. k.o.)
Experimental: as §1, §2, §3

[5] = system: DPH2 gene; experiment: PM resistant colony count after DPH2 gene editing; conditions: DPH2 assay (integr. vs. k.o.); for # of PM resistant colonies (40,000 seeded cells): MCF7, individual samples A-D
Experimental: as §1, §2, §3
CRISPR/Cas module for targeted integration contains a puromycin (PM) resistance gene expression cassette without promoter to avoid transient expression. Thus, detection of integration of recombinant sequences into the genome was detected by determining sensitivity of cells towards PM. A concentration of […] PM (which quantitatively eliminates wildtype MCF7 cells) was applied to select MCF7 cells with stably integrated expression cassettes. PM-resistant colonies selected with the same procedure as described above for the DT selection and visualized and quantified (between 12 and 14 days after start of selection) in the same manner as described above for toxin resistant colonies. Number of PM resistant colonies obtained with non-target guide sequences (scrambled gRNA, FIG. 1) reflect the nonspecific integration background. […]

[6] = DPH1 assay (integr. vs. k.o.), 10,000 seeded cells
[7] = DPH1 assay (integr. vs. k.o.), 40,000 seeded cells

20 mer SpCas9 DPH1 gRNA: Plasmids encoding SpCas9 and Dph1 gRNA (target CAGGGCGGCCGAGACGGCCC, SEQ ID NO: 01) plus PAC donor plasmid, OriGene
mono-allelic gene inactivation (toxin sensitive, HRM confirmed) versus inactivation of both alleles (DTr) [1]: twice as frequent | # of DT resistant colonies (mean of the samples) [2, 6]: 218 | # of DT resistant colonies (mean of the samples) [2, 7]: 947 | # of DT resistant colonies ([2]; MCF7, 10,000 seeded cells, listed as CRISPR Cas9 Dph1 gRNA): 201 and 224 and 219 | # of DT resistant colonies ([2]; MCF7, 40,000 seeded cells): 995 and 942 and 899 and 950 | # of DT resistant colonies ([2]; MCF7, 40,000 seeded cells, listed as CRISPR Cas9 Dph1 gRNA): 995 and 942 and 899 and 950 | # of DT resistant colonies (40,000 seeded cells) [2]: 476 and 492 and 468 and 472 | efficiency relative to ZFN-editing (gene inactivation and integration) [3]: twice as efficient | efficiency relative to engineered high fidelity CRISPR/Cas9 [3]: 5 fold | # of DT resistant colonies (20,000 seeded cells) [3]: 417 and 406 and 409 and 404 | # of DT resistant colonies (20,000 seeded cells) ([3]; listed as 20 mer Dph1 CRISPR Cas9 gRNA): 417 and 406 and 409 and 404 | # of DT resistant colonies (20,000 seeded cells) (unheaded second sub-column: mean) [3]: 409 | # of DT resistant colonies (mean of the samples) [3]: 472 | # of DT resistant colonies [3]: 364 and 545 and 543 and 435 | # of DT resistant colonies ([3]; listed as CRISPR Cas9 Dph1 gRNA): 364 and 545 and 543 and 435 | DPH1 inactivation efficacy in dependence on gRNA length ([3]; DTr colonies): maximum DPH1 inactivation efficacy; also recorded: maximal DPH1 gene inactivation efficiency | frequency of complete inactivation of the DPH1 gene (all alleles) ([3]; MCF7, FIG. 5A): ~6 % of all transfected cells | efficacy of inactivation of both DPH1 alleles (DTr) over integration of the PAC expression cassette (PMr) ([3]; MCF7, FIG. 6): 30-50 fold | frequency of complete inactivation of the DPH1 gene (all alleles) ([3]; MCF7, considering transfection efficiencies of 40%): 2.5 % of all cells

20 mer SpCas9 scRNA: Scrambled control gRNA GCACTACCAGAGCTAACTCA (SEQ ID NO: 03) with SpCas9 and donor plasmid [reference compound]
# of DT resistant colonies (40,000 seeded cells) (unheaded second sub-column: mean) ([4]; MCF7): 0 | # of DT resistant colonies (40,000 seeded cells) ([4]; MCF7, individual samples A-D): 0 | # of DT resistant colonies (mean of the samples) [2, 6]: 0 | # of DT resistant colonies (mean of the samples) [2, 7]: 0 | # of DT resistant colonies ([2]; MCF7, 10,000 seeded cells): 0 | # of DT resistant colonies ([2]; MCF7, 40,000 seeded cells): 0 | # of DT resistant colonies (40,000 seeded cells) [2]: 0 | # of PM resistant colonies (40,000 seeded cells) (unheaded second sub-column: mean) ([5]; MCF7): 0.5 | # of PM resistant colonies (40,000 seeded cells) [5]: 2 and 0 (3×) | # of PM resistant colonies (40,000 seeded cells) ([5]; listed as 20 mer scRNA): 2 and 0 (3×) | # of DT resistant colonies (20,000 seeded cells) [3]: 0 | # of DT resistant colonies (20,000 seeded cells) (unheaded second sub-column: mean) [3]: 0 | # of DT resistant colonies (mean of the samples) [3]: 0 | # of DT resistant colonies [3]: 0 | generation of DTr colonies [3]: did not generate any DTr colony | generation of DTr colonies ([3]; listed as scrambled guides): did not generate any DT-resistant colony
